Test results as given in paper PMC10850145, “Hormonal steroids induce multidrug resistance and stress response genes in Neisseria gonorrhoeae by binding to MtrR” (Nature Communications, 2024).
Values joined by “and” are separate entries in the source; they are usually repeats but may differ in a detail not shown here. Equal values may be shown once. Read-outs that look alike come from different tables or passages of the source.

Tested on: mtrC-lacZ expression
Type: cell-based, Neisseria gonorrhoeae
Conditions: for mtrC-lacZ β-galactosidase activity, Mean: left block of sheet (mtrCDE); for β-galactosidase activity, Mean: second (right) untitled block of sheet Figure S10 (mtrC); for β-galactosidase activity, mtrC-lacZ, Mean: strain ΔmtrR + mtrR WT (pGCC3-mtrR); for Plate-6 (Testosterone) Miller units, Mean: upper four plate rows; for Miller units, Mean: right block Plate-4
[1] = strain ΔmtrR + mtrR R176E, 50 µM hormone
[2] = strain ΔmtrR + mtrR WT, 25 µM hormone
[3] = strain ΔmtrR + mtrR WT, 50 µM hormone

## C[C@]12CC[C@H]3[C@@H](CCC4=CC(=O)CC[C@@]43C)[C@@H]1CC[C@@H]2O [Testosterone, testosterone]
[1]
  mtrC-lacZ β-galactosidase activity, Mean: 224 Miller units
  β-galactosidase activity, Mean: 83 Miller units
Strain ΔmtrR + mtrR R176E, 100 µM hormone
  mtrC-lacZ β-galactosidase activity, Mean: 238 Miller units
Hormone 6.25 µM
  β-galactosidase activity, mtrC-lacZ, Mean: 125 Miller units
Hormone 12.5 µM
  β-galactosidase activity, mtrC-lacZ, Mean: 130 Miller units
Hormone 25 µM
  β-galactosidase activity, mtrC-lacZ, Mean: 133 Miller units
Hormone 50 µM
  β-galactosidase activity, mtrC-lacZ, Mean: 152 Miller units
Strain ΔmtrR + mtrR WT, 1 µM hormone
  mtrC-lacZ β-galactosidase activity, Mean: 107 Miller units
Strain ΔmtrR + mtrR WT, 6.25 µM hormone
  β-galactosidase activity, Mean: 45 Miller units
Strain ΔmtrR + mtrR WT, 10 µM hormone
  mtrC-lacZ β-galactosidase activity, Mean: 177 Miller units
Strain ΔmtrR + mtrR WT, 12.5 µM hormone
  β-galactosidase activity, Mean: 50 Miller units
[2]
  mtrC-lacZ β-galactosidase activity, Mean: 181 Miller units
  β-galactosidase activity, Mean: 70 Miller units
[3]
  mtrC-lacZ β-galactosidase activity, Mean: 213 Miller units
  β-galactosidase activity, Mean: 74 Miller units
Strain ΔmtrR + mtrR WT, 100 µM hormone
  mtrC-lacZ β-galactosidase activity, Mean: 227 Miller units
Strain ΔmtrR, 1 µM hormone
  mtrC-lacZ β-galactosidase activity, Mean: 334 Miller units
Strain ΔmtrR, 6.25 µM hormone
  β-galactosidase activity, Mean: 146 Miller units
Strain ΔmtrR, 10 µM hormone
  mtrC-lacZ β-galactosidase activity, Mean: 358 Miller units
Strain ΔmtrR, 12.5 µM hormone
  β-galactosidase activity, Mean: 153 Miller units
Strain ΔmtrR, 25 µM hormone
  β-galactosidase activity, Mean: 155 Miller units
Strain ΔmtrR, 50 µM hormone
  mtrC-lacZ β-galactosidase activity, Mean: 284 Miller units
  β-galactosidase activity, Mean: 141 Miller units
Strain ΔmtrR, 100 µM hormone
  mtrC-lacZ β-galactosidase activity, Mean: 369 Miller units
Testosterone 6.25 µM, plate column 3
  Plate-6 (Testosterone) Miller units, Mean: 69 Miller units
Testosterone 6.25 µM, plate column 9 (second strain set, columns 7-12)
  Plate-6 (Testosterone) Miller units, Mean: 96 Miller units
Testosterone 12.5 µM, plate column 4
  Plate-6 (Testosterone) Miller units, Mean: 81 Miller units
Testosterone 12.5 µM, plate column 10 (second strain set, columns 7-12)
  Plate-6 (Testosterone) Miller units, Mean: 102 Miller units
Testosterone 25 µM, plate column 5
  Plate-6 (Testosterone) Miller units, Mean: 98 Miller units
Testosterone 25 µM, plate column 11 (second strain set, columns 7-12)
  Plate-6 (Testosterone) Miller units, Mean: 112 Miller units
Testosterone 50 µM, plate column 6
  Plate-6 (Testosterone) Miller units, Mean: 117 Miller units
Testosterone 50 µM, plate column 12 (second strain set, columns 7-12)
  Plate-6 (Testosterone) Miller units, Mean: 119 Miller units
Third strain (lower plate half, wells 1-6; not named), testosterone 6.25 µM
  Miller units, Mean: 45 Miller units
Third strain (lower plate half, wells 1-6; not named), testosterone 12.5 µM
  Miller units, Mean: 50 Miller units
Third strain (lower plate half, wells 1-6; not named), testosterone 25 µM
  Miller units, Mean: 70 Miller units
Third strain (lower plate half, wells 1-6; not named), testosterone 50 µM
  Miller units, Mean: 74 Miller units
ΔmtrR (by plate layout), testosterone 6.25 µM
  Miller units, Mean: 146 Miller units
ΔmtrR (by plate layout), testosterone 12.5 µM
  Miller units, Mean: 153 Miller units
ΔmtrR (by plate layout), testosterone 25 µM
  Miller units, Mean: 155 Miller units
ΔmtrR (by plate layout), testosterone 50 µM
  Miller units, Mean: 141 Miller units
ΔmtrR + mtrR WT in trans, 1 µM, first data set (c15-c36)
  β-galactosidase activity, Miller units (single replicate): 95 Miller units and 106 Miller units
ΔmtrR + mtrR WT in trans, 6.25 µM, second data set (c53-c74)
  β-galactosidase activity, Miller units (single replicate): 36 Miller units and 39 Miller units and 65 Miller units and 38 Miller units
ΔmtrR + mtrR WT in trans, 10 µM, first data set (c15-c36)
  β-galactosidase activity, Miller units (single replicate): 167 Miller units and 179 Miller units
ΔmtrR + mtrR WT in trans, 12.5 µM, second data set (c53-c74)
  β-galactosidase activity, Miller units (single replicate): 52 Miller units and 40 Miller units and 64 Miller units and 45 Miller units
ΔmtrR + mtrR WT in trans, 25 µM, first data set (c15-c36)
  β-galactosidase activity, Miller units (single replicate): 181 Miller units and 185 Miller units
ΔmtrR + mtrR WT in trans, 25 µM, second data set (c53-c74)
  β-galactosidase activity, Miller units (single replicate): 72 Miller units and 60 Miller units and 77 Miller units
ΔmtrR + mtrR WT in trans, 50 µM, first data set (c15-c36)
  β-galactosidase activity, Miller units (single replicate): 185 Miller units and 193 Miller units
ΔmtrR + mtrR WT in trans, 50 µM, second data set (c53-c74)
  β-galactosidase activity, Miller units (single replicate): 89 Miller units and 62 Miller units and 81 Miller units and 65 Miller units
ΔmtrR + mtrR WT in trans, 100 µM, first data set (c15-c36)
  β-galactosidase activity, Miller units (single replicate): 195 Miller units and 175 Miller units
ΔmtrR, 1 µM, first data set (c15-c36)
  β-galactosidase activity, Miller units (single replicate): 360 Miller units and 326 Miller units and 318 Miller units
ΔmtrR, 6.25 µM, second data set (c53-c74)
  β-galactosidase activity, Miller units (single replicate): 213 Miller units and 147 Miller units and 123 Miller units and 100 Miller units
ΔmtrR, 10 µM, first data set (c15-c36)
  β-galactosidase activity, Miller units (single replicate): 393 Miller units and 347 Miller units and 355 Miller units and 336 Miller units
ΔmtrR, 12.5 µM, second data set (c53-c74)
  β-galactosidase activity, Miller units (single replicate): 202 Miller units and 175 Miller units and 120 Miller units and 117 Miller units
ΔmtrR, 25 µM, first data set (c15-c36)
  β-galactosidase activity, Miller units (single replicate): 325 Miller units and 289 Miller units and 330 Miller units and 304 Miller units
ΔmtrR, 25 µM, second data set (c53-c74)
  β-galactosidase activity, Miller units (single replicate): 194 Miller units and 180 Miller units and 119 Miller units and 125 Miller units
ΔmtrR, 50 µM, first data set (c15-c36)
  β-galactosidase activity, Miller units (single replicate): 298 Miller units and 287 Miller units and 282 Miller units and 269 Miller units
ΔmtrR, 50 µM, second data set (c53-c74)
  β-galactosidase activity, Miller units (single replicate): 175 Miller units and 157 Miller units and 99 Miller units
ΔmtrR, 100 µM, first data set (c15-c36)
  β-galactosidase activity, Miller units (single replicate): 429 Miller units and 358 Miller units and 309 Miller units and 379 Miller units
